Results taken from paper PMC7915588, “Polyphyllin D Shows Anticancer Effect through a Selective Inhibition of Src Homology Region 2-Containing Protein Tyrosine Phosphatase-2 (SHP2)” (Molecules, 2021).

Legend:
[1] = target: T1, SHP2 (Homo sapiens, UniProt Q06124)
T1 construct: gene PTPN11
T1 sequence (Q06124 1-526): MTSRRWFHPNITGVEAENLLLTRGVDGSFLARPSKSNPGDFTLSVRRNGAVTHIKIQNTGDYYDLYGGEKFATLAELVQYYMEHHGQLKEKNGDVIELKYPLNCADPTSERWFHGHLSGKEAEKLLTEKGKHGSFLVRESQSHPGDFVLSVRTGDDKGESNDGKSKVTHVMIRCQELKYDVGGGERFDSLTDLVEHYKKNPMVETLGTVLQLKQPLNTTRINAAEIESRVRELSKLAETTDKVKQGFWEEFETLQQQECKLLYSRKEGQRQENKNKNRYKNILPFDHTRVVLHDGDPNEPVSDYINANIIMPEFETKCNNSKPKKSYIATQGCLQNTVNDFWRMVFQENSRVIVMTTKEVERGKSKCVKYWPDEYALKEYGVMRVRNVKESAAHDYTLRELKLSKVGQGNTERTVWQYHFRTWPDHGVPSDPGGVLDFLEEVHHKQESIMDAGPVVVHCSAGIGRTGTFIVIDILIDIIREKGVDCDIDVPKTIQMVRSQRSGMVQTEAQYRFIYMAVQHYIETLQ

[2] = target: T1, SHP2; experiment: DiFMUP fluorogenic phosphatase assay at […]; assay type: biochemical

SMILES | Km [1] [µM] | DiFMUP fluorogenic phosphatase assay at 20 μM [2]
Cc1cc(=O)oc2c(F)c(OP(=O)(O)O)c(F)cc12 [DiFMUP] | 70 | 
CC1(C)CC[C@]2(C(=O)O)CC[C@]3(C)C(=CC[C@@H]4[C@@]5(C)CC[C@H](O)C(C)(C)[C@@H]5CC[C@]43C)[C@@H]2C1 [oleanolic acid] |  | Echinocystic and oleanolic acids selectively inhibited SHP1 and SHP2 over the other PTPs tested
